# From US20120269882A1, “Brain Delivery of Insulin to Treat Systemic Inflammation” (MOUNT SINAI SCHOOL OF MEDICINE Office of Technology & …, priority 2009, published 2012)
# “Also recorded” adds a separate entry of the source.
# Columns and labels:
# [1] = tested on: LPS induced pro-inflammatory proteins in liver; test: Western blot of liver tissue lysates after LPS injection and ICV infusion; assay type: in vivo, mice; conditions: LPS 1 mg/kg i.p., vs vehicle
# Description: Quantification of western blot analyses from liver tissue lysates expressed as fold change to vehicle and normalized over β-actin.
# Quantification of western blot analyses from liver tissue lysates expressed as fold change to vehicle and normalized over β-actin. Mice were injected with LPS (1 mg/kg, i.p.) and randomly assigned to receive ICV glucose (4 mM) or vehicle infusions for 4 hours until necropsy.
# [2] = tested on: LPS induced pro-inflammatory proteins in lung; test: Western blot of lung tissue lysates after LPS injection and ICV infusion; assay type: in vivo, mice; conditions: LPS 1 mg/kg i.p., ICV infusion 4 h, vs vehicle
# Description: (§1) FIG. 1A-B: FIG. 1A, Experimental protocol for high fat diet feeding and intracerebroventricular (ICV) cannula implantation. 4 week old male C57B1/6 mice were fed a high fat diet for 4 weeks and ICV cannulae were implanted. After 5 days recovery from surgery infusion studies were performed. FIG. 1B, Protocol for infusion studies. Mice were injected with lipopolysaccharides (LPS) (1 mg/kg, i.p.) and randomly assigned to receive ICV insulin or vehicle infusions for 4 hours until necropsy.
# FIG. 5: ICV insulin treatment reduces LPS induced pro-inflammatory proteins in lung. Quantification of Western blot analyses from lung tissue lysates expressed as fold change to vehicle and normalized over α-tubulin. Activation of the transcription factors Stat1 is decreased by central insulin. The level of the pro-inflammatory cytokine IL-1β is reduced in the ICV insulin infused animals. n=6 per group, *p<0.05.
# Male C57B1/6 mice were weaned at 4 weeks of age and fed a High Fat Diet (HFD) for 35 days to induce insulin resistance. […]
# To investigate whether central insulin reduces cytokine signaling in peripheral tissues, the expression and phosphorylation of signal transducer and activator of transcription (Stat) was measured in lung (FIG. 4), spleen (FIG. 5) and liver (FIG. 6) tissue by western blot. […]
# [3] = tested on: signal transducer and activator of transcription (Stat); test: Stat expression and phosphorylation in peripheral tissues (lung, spleen, liver) by western blot; assay type: in vivo, mice; conditions: after ICV insulin infusion
# Description: (§2) Male C57B1/6 mice were weaned at 4 weeks of age and fed a High Fat Diet (HFD) for 35 days to induce insulin resistance. After 30 days of HFD feeding, the mice underwent stereotactic surgery to implant intracerebroventricular (ICV) guide cannula (see, FIG. 2 for an illustration of cannula placement) followed by a 5-day recovery period until infusion experiments were carried out. On the day of the experiment, animals were placed in individual cages, received an intraperitoneal (i.p.) injection of E. coli (LPS) (1 mg/kg) and were continuously ICV infused using a micro infusion pump with Artificial CerebroSpinal Fluid (ACSF) or Insulin (0.005 mU/h) for 4 hours, yielding a total dose of 0.020 mU. See FIG. 1A-B for a graphical illustration of the protocol.
# To investigate whether central insulin reduces cytokine signaling in peripheral tissues, the expression and phosphorylation of signal transducer and activator of transcription (Stat) was measured in lung (FIG. 4), spleen (FIG. 5) and liver (FIG. 6) tissue by western blot. […] Likewise, the activation of Stat3 which plays a central role in signaling of IL-6 and related cytokines was decreased in peripheral tissues after ICV insulin infusion. Lower protein levels of the pro-inflammatory cytokine IL-1β were detectable in the insulin-infused animals in liver, spleen and lung tissue. […]
# LPS-treated mice = test: Survival in a mouse model of sepsis (LPS 5 mg/kg, i.p.); assay type: in vivo; conditions: high fat diet C57B16 mice, ICV infusion up to 5 days, vs vehicle, assessed daily
# Description: FIG. 9: ICV insulin improves survival in a mouse model of sepsis. 4 weeks old C57B16 mice were fed high fat diet for 4 weeks and ICV cannulas were implanted. Mice were injected with LPS (5 mg/kg, ip) and randomly assigned to receive ICV insulin or vehicle infusions for up to 5 days (n=11 per group). Survival was assessed daily as depicted.
# In view of the potent anti-inflammatory effects mediated by insulin when administered to the CNS, studies were undertaken to determine whether administration of insulin to the CNS would protect mice from death in a sepsis model. 4-week old C57B16 mice were fed high fat diet for 4 weeks and ICV cannulas were implanted as described above. Mice were injected with LPS (5 mg/kg, i.p.) and randomly assigned to receive ICV insulin or vehicle infusions for up to 5 days (n=11 per group). Survival was assessed daily and results were plotted, see, e.g., FIG. 9.
# [4] = tested on: LPS induced pro-inflammatory cytokine levels; test: Serum TNF-α and IL-6 by ELISA after LPS injection and ICV infusion; assay type: in vivo; conditions: high fat diet C57B1/6 mice, LPS 1 mg/kg i.p., ICV insulin 0.02 mU/h for 4 h vs vehicle, p<0.05
# Description: as §1
# FIG. 3: ICV insulin treatment reduces LPS induced pro-inflammatory cytokine levels. Mice were injected with LPS (1mg/kg, i.p.) infused with central insulin (0.02 mU/h) or vehicle for 4 h and sacrificed. Serum concentrations of TNF-α and IL-6 were determined by ELISA. n=12-14 per group, *p<0.05.
# Male C57B1/6 mice were weaned at 4 weeks of age and fed a High Fat Diet (HFD) for 35 days to induce insulin resistance. After 30 days of HFD feeding, the mice underwent stereotactic surgery to implant intracerebroventricular (ICV) guide cannula (see, FIG. 2 for an illustration of cannula placement) followed by a 5-day recovery period until infusion experiments were carried out. […]
# [5] = tested on: LPS induced pro-inflammatory proteins in spleen; test: Western blot of spleen tissue lysates after LPS injection and ICV infusion; assay type: in vivo, mice; conditions: LPS 1 mg/kg i.p., ICV infusion 4 h, vs vehicle
# Description: as §1
# FIG. 4: ICV insulin treatment reduces LPS induced pro-inflammatory proteins in spleen. Quantification of Western blot analyses from spleen tissue lysates expressed as fold change to vehicle and normalized over β-actin. Activation of the transcription factors Stat1 and Stat3 is decreased. The pro-inflammatory markers IL-1β, COX2 and IKK-β are reduced in the ICV insulin infused animals. n=6 per group, *p<0.05.
# as §2
# To investigate whether central insulin reduces cytokine signaling in peripheral tissues, the expression and phosphorylation of signal transducer and activator of transcription (Stat) was measured in lung (FIG. 4), spleen (FIG. 5) and liver (FIG. 6) tissue by western blot. […] Likewise, the activation of Stat3 which plays a central role in signaling of IL-6 and related cytokines was decreased in peripheral tissues after ICV insulin infusion. Lower protein levels of the pro-inflammatory cytokine IL-1β were detectable in the insulin-infused animals in liver, spleen and lung tissue. Lower IL-1β levels in lung tissue has been associated with improvement of acute lung injury, which is a clinically important sequelae in sepsis.
# [6] = ICV insulin 4 h, normalized over β-actin
Compound,Activation of Stat1 in liver ([1]; ICV glucose 4 mM for 4 hours),Activation of Stat3 in liver ([1]; ICV glucose 4 mM for 4 hours),IKK-β levels in liver (NF-κB signaling) ([1]; ICV glucose 4 mM for 4 hours),PDI expression in liver (marker for ER stress) ([1]; ICV glucose 4 mM for 4 hours),IL-1β protein in lung [2],Activation of Stat1 in lung ([2]; normalized over α-tubulin),Activation of Stat3 in peripheral tissues [3],"LPS induced phosphorylation of Stat1 ([3]; measured in lung, spleen and liver)",Survival (LPS-treated mice),IL-1β protein in liver ([1]; ICV insulin 4 h),"Activation of Stat1 in liver [1, 6]","Activation of Stat3 in liver [1, 6]",Serum concentration of IL-6 [4],Serum concentration of TNF-α [4],COX2 protein in spleen [5],IKK-β protein in spleen [5],IL-1β protein in spleen [5],Activation of Stat1 in spleen ([5]; normalized over β-actin),Activation of Stat3 in spleen ([5]; normalized over β-actin)
O=C[C@H](O)[C@@H](O)[C@H](O)[C@H](O)CO [glucose],significantly increased,significantly increased,Higher levels,Higher levels; also recorded: elevated,,,,,,,,,,,,,,,
insulin,,,,,reduced; also recorded: Lower,decreased,decreased,marked inhibition,significantly (p=0.0194) improved; also recorded: significantly improve the survival,reduced; also recorded: Lower,decreased,decreased,reduces,reduces,reduced,reduced,reduced; also recorded: Lower,decreased,decreased
